Measurements: US4892887A, “N,N'-bis(sulfonyl)hydrazines having antineoplastic activity” (Yale University, priority 1988, dated 1990)

Tests used:
P388 leukemia = assay: Survival time of mice bearing the P388 leukemia; type: in vivo, mouse (CDF-1 mice); settings: at 150 mg/kg
Protocol: The tumor-inhibitory properties of compounds 1-12 were determined by measuring their effects on the survival time of mice bearing the L1210 leukemia and in some cases Sarcoma 180, and the P388 leukemia. The ascites cell forms of the L1210 leukemia, Sarcoma 180 and P388 leukemia were propagated in CDF-1 mice. Transplantation was carried out using donor mice bearing 7-day tumor growths; experimental details are described in Agrawal et al., J. Med. Chem., 11, 700, 1968, incorporated herein by reference. Mice were weighed during the course of the experiments, and the percentage change in body weight from the onset to termination of therapy was used as an indication of host toxicity.

B16 melanoma = assay: Survival time of mice bearing the B16 melanoma; type: in vivo, mouse (C57B1 mice); settings: for Max. % T/C: Table IV, B16, at optimum effective daily dose; for Av. Change in wt., %: at optimum effective daily dose, B16 mice
Protocol: This tumor was propagated in C57B1mice. Transplantation was carried out by removing tumors from donor mice bearing 14-day subcutaneous tumor growths. The tissue was fragmented to make a well-dispersed cellular suspension and diluted with Fischer's medium without serum so that one gram of tissue was suspended in 5 ml of solution. A portion (0.2 ml) of the resulting cell suspension was injected intraperitoneally into each recipient animal. All compounds were administered over a wide range of dosage levels by intraperitoneal injection, beginning 24 hours after tumor implantation, once daily for 6 consecutive days. The test compounds were injected as fine suspensions following homogenization in 2 to 3 drops of 20% aqueous Tween 80 and then made up to volume with isotonic saline. […] Mice were weighed during the course of the experiments, and the percent change in body weight from onset to termination of therapy was used as an indication of drug toxicity. Determination of the sensitivity of neoplasms to these agents was based on the prolongation of survival time afforded by the drug treatments.
^a Administered once daily for six consecutive days, beginnign 24
hours after tumor transplanation, with 5 animals being used per group.
^b Average change in body weight from onset to termination of therapy
^c % T/C = average survival time of treated/control animals ×
100. Each value represents the average of 5 animals per group.

L1210 leukemia = assay: Survival time of mice bearing the L1210 leukemia; type: in vivo, mouse (CDF-1 mice); settings: for Av. Change wt. %: L1210 mice
From the text: The ascites cell forms of the L1210 leukemia, Sarcoma 180 and P388 leukemia were propagated in CDF-1 mice. […] Mice were weighed during the course of the experiments, and the percentage change in body weight from the onset to termination of therapy was used as an indication of host toxicity.
Each value represents the average of 5 animals per group.

B16 melanoma cells = assay: Cytotoxicity: colony-forming ability of B16 melanoma cells; type: cell-based; settings: Mus musculus, 1 hour exposure, 12 days incubation, average of two determinations, read-out: LD50 (the source's name)
Protocol: The cytotoxicity of compounds 8 and 12 was determined by measuring their effects on the colony-forming ability of B16 melanoma cells. The cells were maintained in Eagle's minimum essential medium supplemented with 10% fetal bovine serum. To obtain exponentially growing B16 melanoma cells, a 25 cm^2 flask was inoculated with 10^5 cells for two days before addition of drug. The cell monolayer was exposed to various concentrations of compound for 1 hour. After exposure, the layer was washed twice with PBS to remove the compound. The cells were harvested with 2 mM EDTA in PBS, and 200 cells were plated on a 60 mm dish with 5 mL of medium. After incubation for 12 days, the colonies were stained with crystal violet and counted. […] The LD50 was determined from the individual dose-response curves.

[1] = 50 mg/kg once daily for six days
[2] = 100 mg/kg once daily for six days
[3] = 150 mg/kg once daily for six days
[4] = 10 mg/kg once daily for six days
[5] = 20 mg/kg once daily for six days
[6] = 30 mg/kg once daily for six days

Compound: COc1ccc(S(=O)(=O)NN(C)S(=O)(=O)c2ccc(OC)cc2)cc1 [Compound 9, N,N'-bis (p-methoxybenzenesulfonyl)-N-methylhydrazine]
- Max. % T/C vs. P388 leukemia (P388 leukemia): 136 % T/C
- Max. % T/C (B16 melanoma): 191 % T/C
- Av. Change in wt., % (B16 melanoma): +2.4%
- Average Survival Time of Treated Animals, days ± SE (L1210 leukemia; [1]): 13.4 ± 1.0 days
- Av. Change wt. % (L1210 leukemia; [1]): +10.9%
- Average Survival Time of Treated Animals, days ± SE (L1210 leukemia; [2]): 13.2 ± 1.1 days
- Av. Change wt. % (L1210 leukemia; [2]): +1.9%
- Average Survival Time of Treated Animals, days ± SE (L1210 leukemia; [3]): 12.2 ± 1.2 days
- Av. Change wt. % (L1210 leukemia; [3]): -1.6%
- response vs control in vivo at 50 mg/kg (L1210 leukemia; Mus musculus, 144 h, 50 mg/kg once daily for six days, L1210, read-out: % T/C): 149%
- response vs control in vivo at 100 mg/kg (L1210 leukemia; Mus musculus, 144 h, 100 mg/kg once daily for six days, L1210, read-out: % T/C): 147%
- response vs control in vivo at 150 mg/kg (L1210 leukemia; Mus musculus, 144 h, 150 mg/kg once daily for six days, L1210, read-out: % T/C): 136%

Compound: Cc1ccc(S(=O)(=O)N(C)NS(C)(=O)=O)cc1 [Compound 12]
- IC50 (B16 melanoma cells): 620 nM
- % T/C (B16 melanoma; B16, daily dosage of 10 mg/kg (Table IV footnote d)): 206 % T/C
- % T/C (B16 melanoma; B16, daily dosage of 20 mg/kg (Table IV footnote d)): 206 % T/C
- dosage range of activity against the B16 melanoma (B16 melanoma; B16 melanoma in mice): 10 to 30 mg/kg
- Max. % T/C (B16 melanoma): 207 % T/C
- toxicity at higher dosage levels (in words) (B16 melanoma; above 10-30 mg/kg): toxic at higher dosage levels
- Av. Change in wt., % (B16 melanoma): -1.9%
- Average Survival Time of Treated Animals, days ± SE (L1210 leukemia; [4]): 14.8 ± 0.4 days
- Av. Change wt. % (L1210 leukemia; [4]): +9.1%
- Average Survival Time of Treated Animals, days ± SE (L1210 leukemia; [5]): 15.0 ± 0.7 days
- Av. Change wt. % (L1210 leukemia; [5]): -2.0%
- Average Survival Time of Treated Animals, days ± SE (L1210 leukemia; [6]): 19.2 ± 2.0 days
- Av. Change wt. % (L1210 leukemia; [6]): -7.9%
- response vs control in vivo at 10 mg/kg (L1210 leukemia; Mus musculus, 144 h, 10 mg/kg once daily for six days, L1210, read-out: % T/C): 161%
- response vs control in vivo at 20 mg/kg (L1210 leukemia; Mus musculus, 144 h, 20 mg/kg once daily for six days, L1210, read-out: % T/C): 163%
- response vs control in vivo at 30 mg/kg (L1210 leukemia; Mus musculus, 144 h, 30 mg/kg once daily for six days, L1210, read-out: % T/C): 209%
- activity against the L1210 leukemia (in words) (L1210 leukemia; mouse, in vivo): high level of activity against the L1210 leukemia

Compound: CCS(=O)(=O)NN(C)S(=O)(=O)c1ccc(C)cc1 [Compound 13]
- IC50 (B16 melanoma cells): 160 nM
- Max. % T/C (B16 melanoma): 174 % T/C
- Av. Change in wt., % (B16 melanoma): -1.1%
- activity against the B16 melanoma (in words) (B16 melanoma; mouse, in vivo): appreciable levels of activity against the B16 melanoma
